Tests used:
[1] = Release pattern of drug from composite (dialysis bag in PBS pH 7.4, HPLC); assay type: physicochemical; details: at body temperature (37° C.) versus room temperature; PBS pH 7.4, dialysis bag
Protocol: To confirm the release pattern of a drug from the temperature-sensitive composite in the present invention, an experiment was carried out as follows. 20 mg of each of the temperature-sensitive composites from Examples 1, 2 and 3, and the temperature-sensitive polymer composites from Comparative Examples 1, 2 and 3 was put into a dialysis bag (filtration molecular weight cut-off—100,000), and then immersed in 20 ml of a phosphate buffer solution (PBS, pH 7.4). The temperature was maintained at 25° C. and 37.5° C. with stirring at 600 rpm. At predetermined time, 5 ml of the phosphate buffer solution was withdrawn to measure an amount of the released drug through HPLC. After sampling, the remaining phosphate buffer solution was completely removed, and a fresh phosphate buffer solution was added.

[2] = Precipitation / stability and solubility of drug in composite aqueous solution; assay type: physicochemical; details: drug not loaded in nanoparticles
Protocol: An aqueous solution was prepared by mixing 2 g of Pluronic F-127, 0.1 g of naproxen and 50 mg of sodium hyaluronate with 10 ml of distilled water, thereby preparing a polymer composite aqueous solution in which naproxen was dispersed.
An aqueous solution was prepared by mixing 1.6 g of Pluronic F-127, 0.4 g of Pluronic F-68, 50 mg of doxorubicin and 75 mg of docetaxel with 10 ml of distilled water, thereby preparing a polymer composite aqueous solution in which doxorubicin and docetaxel were dispersed.

SMILES: CCCCN1CCCCC1C(=O)Nc1c(C)cccc1C (stereo not shown) [bupivacaine]
- release of the drug [1]: decreased

SMILES: CC(=O)O[C@@]12CO[C@@H]1C[C@H](O)[C@@]1(C)C(=O)[C@H](O)C3=C(C)[C@@H](OC(=O)[C@H](O)[C@@H](NC(=O)OC(C)(C)C)c4ccccc4)C[C@@](O)([C@@H](OC(=O)c4ccccc4)[C@H]21)C3(C)C [docetaxel]
- precipitation in the polymer composite [2]: precipitated

SMILES: COc1ccc2cc([C@H](C)C(=O)O)ccc2c1 [naproxen]
- precipitation in the polymer composite [2]: precipitated

SMILES: COc1cccc2c1C(=O)c1c(O)c3c(c(O)c1C2=O)C[C@@](O)(C(=O)CO)C[C@@H]3O[C@H]1C[C@H](N)[C@H](O)[C@H](C)O1 [doxorubicin]
- release of the drug [1]: decreased

Source: patent US10744092B2, “Temperature-sensitive composite and method for preparing same” (KOREA UNIVERSITY RESEARCH AND BUSINESS FOUNDATION, SEJONG …, priority 2016, dated 2020)
